Assay results as given in patent publication US11091501B2, “Heterocyclic compounds as RSV inhibitors” (Enanta Pharmaceuticals, Inc., priority 2017, dated 2021).

Each molecule was assayed on Human RSV-A (“Long” strain) (assay: RSV in vitro cytoprotection assay (CPE, ATPlite) in HEp-2 cells). Details: human respiratory syncytial virus, 96 h; HEp-2 cells, 4-day incubation, ATPlite readout; read-out: Human RSV-A (“Long” strain) EC50.
Format: cell-based
Summary of the method: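 HEp-2 cells (8,000/well) given 2-fold serial compound dilutions in duplicate, then infected with sucrose-stabilised RSV-A Long stock. After 4 days, cell viability read by ATPlite luminescence, with a parallel uninfected plate for cytotoxicity. EC50 binned A<0.01 μM, B 0.01-0.05 μM, C>0.05 μM.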

Structure (SMILES) | EC50 [nM]
Cc1cnc(N2CC3(CCOCC3)C2)c(C(=O)Nc2ccc(C(=O)N3CCc4cc(-c5c(F)cncc5F)sc4-c4ccc(F)cc43)cc2)c1 [Example 186] | 10 to 50
Cc1cc(CNc2ncccc2C(=O)Nc2ccc(C(=O)N3CCc4cc(C(=O)Nc5c(F)cccc5F)sc4-c4ccc(F)cc43)cc2)on1 [Example 56] | > 50
Cc1cnc(N2CC3(CCOCC3)C2)c(C(=O)Nc2ccc(C(=O)N3CCc4c(sc(-c5nc6cccc(Cl)c6[nH]5)c4F)-c4ccccc43)cc2)c1 [Example 202] | 10 to 50
Cc1ccc(C(=O)Nc2ccc(C(=O)N3CCc4cc(C(=O)Nc5c(F)cccc5F)sc4-c4ccc(F)cc43)cc2)c(N2CC3(CCOCC3)C2)n1 [Example 110] | < 10
Cc1cccc(F)c1NC(=O)c1cc2c(o1)-c1ccccc1N(C(=O)c1ccc(NC(=O)c3cc4c(nc3N3CC5(CCOCC5)C3)CCC4)cc1)CC2 [Example 250] | < 10
O=C(Nc1c(F)cc(F)cc1Cl)c1nc2c(s1)-c1ccccc1N(C(=O)c1ccc(NC(=O)c3cccnc3N3CC4(CCOCC4)C3)cc1)CC2 [Example 106] | 10 to 50
Cc1cnc(N2CC3(CCOCC3)C2)c(C(=O)Nc2ccc(C(=O)N3CCc4cc(C(=O)Nc5c(Cl)cncc5Cl)sc4-c4ccc(F)cc43)cc2)c1 [Example 131] | < 10
O=C(Nc1ccc(C(=O)N2CCc3nc(-c4nc5ccccc5[nH]4)oc3-c3ccccc32)cc1)c1cccnc1N1CC2(CCOCC2)C1 [Example 109] | 10 to 50
O=C(Nc1c(F)cc(F)cc1Cl)c1cc2c(s1)-c1ccc(F)cc1N(C(=O)c1ccc(NC(=O)c3cc4ccccc4nc3N3CC4(CCOCC4)C3)cc1)CC2 [Example 25] | 10 to 50
O=C(Nc1ccc(C(=O)N2CCc3cc(-c4nc5ccccc5[nH]4)sc3-c3ccc(F)cc32)cc1)c1cc2ccccc2nc1N1CC2(CCOCC2)C1 [Example 10] | 10 to 50
Cc1cnc(N2CC3(CCOCC3)C2)c(C(=O)Nc2ccc(C(=O)N3CCc4cc(NC(=O)c5ccccc5)sc4-c4ccccc43)cc2)c1 [Example 284] | < 10
Cc1cnc(N2CC3(CCOCC3)C2)c(C(=O)Nc2ccc(C(=O)N3CCc4c(sc(-c5nc6ccccc6[nH]5)c4C)-c4ccccc43)cc2)c1 [Example 273] | 10 to 50
Cc1cnc(N2CC3(CCOCC3)C2)c(C(=O)Nc2ccc(C(=O)N3CCc4c(sc(C(=O)Nc5c(C)cccc5C)c4F)-c4ccccc43)cc2)c1 [Example 208] | < 10
Cc1ccc(C(=O)Nc2ccc(C(=O)N3CCc4cc(-c5nc6ccccc6[nH]5)sc4-c4ccc(F)cc43)cc2)c(N2CC3(CCOCC3)C2)n1 [Example 147] | < 10
O=C(Nc1c(F)cccc1F)c1cc2c(s1)-c1ccc(F)cc1N(C(=O)c1ccc(NC(=O)c3cc4c(nc3N3CC5(CCOCC5)C3)CCC4)cc1)CC2 [Example 65] | < 10

More lines, now with the values ahead:

EC50 [nM] | Structure (SMILES)
< 10 | O=C(Nc1ccccc1F)c1cc2c(o1)-c1ccccc1N(C(=O)c1ccc(NC(=O)c3cc4c(nc3N3CC5(CCOCC5)C3)CCC4)cc1)CC2 [Example 255]
10 to 50 | O=C(Nc1ccc(C(=O)N2CCc3cc(-c4nc5ccc(F)cc5[nH]4)sc3-c3ccc(F)cc32)cc1)c1cc(F)cnc1N1CC2(CCOCC2)C1 [Example 42]
10 to 50 | O=C(Nc1c(F)cc(F)cc1Cl)c1cc2c(s1)-c1ccc(Cl)cc1N(C(=O)c1ccc(NC(=O)c3cccnc3N3CC4(CCOCC4)C3)cc1)CC2 [Example 84]
< 10 | Cc1cc(C(=O)Nc2ccc(C(=O)N3CCc4c(sc(C(=O)Nc5c(F)cccc5F)c4F)-c4ccccc43)cc2)c(N2CC3(CCOCC3)C2)nc1C [Example 220]
< 10 | Cc1cnc(N2CC3(CCOCC3)C2)c(C(=O)Nc2ccc(C(=O)N3CCc4cc(C(=O)N[C@H]5CCOC5)sc4-c4ccc(F)cc43)cc2)c1 [Example 124]
< 10 | Cc1cnc(N2CC3(CCOCC3)C2)c(C(=O)Nc2ccc(C(=O)N3CCc4cc(-c5nccs5)sc4-c4ccc(F)cc43)cc2)c1 [Example 154]
< 10 | Cc1cnc(N2CC3(CCOCC3)C2)c(C(=O)Nc2ccc(C(=O)N3CCc4c(sc(C(=O)Nc5c(F)cccc5F)c4F)-c4ccccc43)cc2)c1 [Example 93]
< 10 | Cc1ccc(C(=O)Nc2ccc(C(=O)N3CCc4cc(-c5nc6cccc(F)c6[nH]5)sc4-c4ccc(F)cc43)cc2)c(N2CC3(CCOCC3)C2)n1 [Example 149]
< 10 | Cc1cnc(N2CC3(CCOCC3)C2)c(C(=O)Nc2ccc(C(=O)N3CCc4cc(-c5cccnn5)sc4-c4ccc(F)cc43)cc2)c1 [Example 190]
10 to 50 | N#Cc1cnc(N2CC3(CCOCC3)C2)c(C(=O)Nc2ccc(C(=O)N3CCc4cc(C(=O)Nc5c(Cl)cccc5Cl)sc4-c4ccc(F)cc43)cc2)c1 [Example 18]
10 to 50 | O=C(Nc1c(F)cc(F)cc1Cl)c1cc2c(s1)-c1c(cc(F)c(F)c1F)N(C(=O)c1ccc(NC(=O)c3cccnc3N3CC4(CCOCC4)C3)cc1)CC2 [Example 81]
< 10 | Cc1cnc(N2CC3(CCOCC3)C2)c(C(=O)Nc2ccc(C(=O)N3CCc4cc(-c5c[nH]nc5C5CC5)sc4-c4ccc(F)cc43)cc2)c1 [Example 170]
> 50 | Cc1cnc(N2CC3(CCOCC3)C2)c(C(=O)Nc2ccc(C(=O)N3CCc4c(sc(C(=O)Nc5ncc(C(F)(F)F)s5)c4F)-c4ccccc43)cc2)c1 [Example 225]
< 10 | O=C(Nc1c(F)cc(F)cc1F)c1cc2c(s1)-c1ccc(F)cc1N(C(=O)c1ccc(NC(=O)c3cc4ccccc4nc3N3CC4(CCOCC4)C3)cc1)CC2 [Example 15]
> 50 | CCOCCNc1ncccc1C(=O)Nc1ccc(C(=O)N2CCc3cc(C(=O)Nc4c(F)cccc4F)sc3-c3ccc(F)cc32)cc1 [Example 54]
